From US4545991A, “Difficidin and derivative antibacterials” (Merck & Co., Inc., priority 1983, dated 1985) come the findings set out here.

SMILES strings stand for the structures. In brackets after ≈: the same amount, converted by molar mass.

What is called MIC is the smallest concentration in the dilution series that meets the test's criterion for growth inhibition. The low end stands for a more susceptible organism, the high end for a less susceptible organism. The term ED50 denotes the midpoint of the dose-response relation.

In one data set the test system is E. coli DC 2. In words: MIC, in vitro agar dilution assay, aerobic bacteria (Table II). The class given is cell-based. As to conditions: E. coli DC 2; 10^6 CFU per spot. (In agar dilution, organisms are placed on agar that contains the substance at set levels.)
For data set [1], the system named is Peptostreptococcus anaerobius. Briefly: MIC, in vitro agar dilution assay, anaerobic bacteria (Table III). The class given is cell-based. As to conditions: 10^6 CFU per spot.
The nature of another data set: pH of aqueous solution. In kind it is physicochemical.
The next data set concerns E. coli TEM 2^+ DC 2. Briefly: MIC, in vitro agar dilution assay, aerobic bacteria (Table II). In kind it is cell-based. As to conditions: E. coli TEM 2^+ DC 2; 10^6 CFU per spot.
For a further data set, the system named is Actinomyces naeslundii. In words: MIC, in vitro agar dilution assay, anaerobic bacteria (Table III). In kind it is cell-based. To be noted: 10^6 CFU per spot.
The test system of data set [2] is Bifidobacterium dentium Fox^r. The data set is described as above. In kind it is cell-based. As to conditions: Bifidobacterium dentium Fox^r; 10^6 CFU per spot.
In another data set the test system is Pseudomonas aeruginosa. In words: MIC, standard in vitro assay (Table I). In kind it is cell-based. To be noted: for MIC Range: 10^6 CFU, 3 strains tested. From the text: (§1) Using standard in vitro assay techniques, minimal inhibitory concentrations (MIC) have been determined for difficidin and oxydifficidin against a number of bacteria.
Another data set deals with Serratia marcescens. Briefly: MIC, standard in vitro assay (Table I). To be noted: for MIC Range: 10^6 CFU, 1 strain tested. The class given is cell-based.
Excerpt: as §1

For the next data set, the system named is Klebsiella pneumoniae. Briefly: MIC, standard in vitro assay (Table I). The class given is cell-based. As to conditions: 10^6 CFU; 2 strains tested.
Excerpt: as §1

A further data set relates to Escherichia coli. Briefly: MIC, standard in vitro assay (Table I). The class given is cell-based. To be noted: 10^6 CFU; 4 strains tested.
Excerpt: as §1

Another data set deals with C. difficile Fox^r. In words: MIC, in vitro agar dilution assay, anaerobic bacteria (Table III). The class given is cell-based. As to conditions: C. difficile Fox^r; 10^6 CFU per spot.
In data set [3] the test system is B. distasonis Pen^r Fox^r Clind^r. Described as above. The class given is cell-based. As to conditions: 10^6 CFU per spot.
A short description of another data set: solubility. In kind it is physicochemical. To be noted: water, lower alcohols such as methanol and ethanol.
The subject of data set [4] is B. distasonis Pen^r Fox^r. In words: MIC, in vitro agar dilution assay, anaerobic bacteria (Table III). The class given is cell-based. As to conditions: 10^6 CFU per spot.
For a further data set, the system named is B. fragilis Pen^r. Described as above. As to conditions: 10^6 CFU per spot. The class given is cell-based.
For another data set, the system named is aerobic microorganisms. In words: antibacterial activity against aerobic microorganisms, summary. In kind it is cell-based. To be noted: such as Pseudomonas aeruginosa and Staphyloccoccus aureus.
For data set [5], the system named is Klebsiella pneumoniae MB 4005. In words: standard mouse protection test, experimental systemic infection. As to conditions: × 2 i.p. doses (immediately after infection and 6 hours later), 7 days. In kind it is in vivo, CD1 female mice. The method, then:
The antibacterial efficacy of difficidin and its derivatives was further determined in standard mouse protection tests. An experimental systemic infection was produced in CD1 female mice (Charles River Breeding Laboratories, Wilmington, MA) by the intraperitoneal injection of a suitably diluted broth culture of Klebsiella pneumoniae MB 4005. The test antibacterial compounds and the control drug (streptomycin) were administered parenterally (intraperitoneally) immediately after infection and again 6 hours later. At least 4 fourfold dilutions of each agent were tested. There were 5 mice at each dose level. […] Under the conditions of the test, all infected untreated mice died within 48 hours.
Mice were protected by the administration of the test antibacterial compounds or streptomycin at the median effective doses shown in Table IV below.

Data set [6] can be described thus: decomposition during lyophilization. The class given is physicochemical. As to conditions: lyophilization of (IV) to (V). The method, then: There is evidence that from 10-15% decomposition of oxydifficidin may have occurred during lyophilization of (IV) to (V). Based on the lyophilized weight of (V) and the UV analysis of (IV), A1 cm^1% (275 nm)--438 is calculated.

`C=CC=C(C)CCC1CC=CC=C(C)C(OP(=O)(O)O)CCCC=CC=CC=CCC(C)C(=C)CC(=O)O1` (stereo not shown) [Difficidin, difficidin]: the MIC is 8.0 µg/mL (≈ 14.7 µM) against E. coli DC 2; 0.06 µg/mL (≈ 0.11 µM) in data set [1]; 8.0 µg/mL (≈ 14.7 µM) against E. coli TEM 2^+ DC 2; over 128 µg/mL against Actinomyces naeslundii; 32 µg/mL (≈ 58.8 µM) in [2]; 0.06 µg/mL (≈ 0.11 µM) against C. difficile Fox^r. Further, the MIC is 0.06 µg/mL (≈ 0.11 µM) in data set [3], over 128 µg/mL in data set [4] and 0.125 µg/mL (≈ 0.229 µM) against B. fragilis Pen^r. In addition, in “pH of aqueous solution”, the “pH of 0.1% by weight aqueous solution” value is 6.9. Besides, the “MIC Range” value in the data set with Pseudomonas aeruginosa turned out to be 8 µg/mL (≈ 14.7 µM); against Serratia marcescens, 4 µg/mL (≈ 7.34 µM); in the data set on Klebsiella pneumoniae it was 8 µg/mL (≈ 14.7 µM); in the data set on Escherichia coli, 8 µg/mL (≈ 14.7 µM). The “effectiveness of difficidin relative to oxydifficidin” value in the data set with Pseudomonas aeruginosa (Ps. aeruginosa, in most cases) was “four times more effective”; with Serratia marcescens (Serratia marcescens, in most cases), “four times more effective”. The solubility result in the data set “solubility” was “soluble in water, lower alcohols such as methanol and ethanol”. Also, the “potency against aerobic microorganisms relative to oxydifficidin” value with aerobic microorganisms is on record as “more potent than oxydifficidin”. In addition, the median effective dose (ED50) in data set [5] (Test No. 3) is listed as 1.56 mg/kg.

For `C=CC=C(C)CCC1CC=CC=C(C)C(OP(=O)(O)O)CCCC=CC=CC=CC(O)C(C)C(=C)CC(=O)O1` (stereo not shown) [Oxydifficidin, oxydifficidin], the minimum inhibitory concentration (MIC) is 4.0 µg/mL (≈ 7.13 µM) in the data set with E. coli DC 2; 0.06 µg/mL (≈ 0.107 µM) in data set [1]; 8.0 µg/mL (≈ 14.3 µM) with E. coli TEM 2^+ DC 2; 64 µg/mL (≈ 114 µM) in the data set on Actinomyces naeslundii; 0.06 µg/mL (≈ 0.107 µM) in the data set with C. difficile Fox^r; 0.06 µg/mL (≈ 0.107 µM) in data set [3]. Also, the figures for the MIC (in data set [4]; in the data set on B. fragilis Pen^r) were over 128 µg/mL and 0.125 µg/mL (≈ 0.223 µM), respectively. Moreover, the “MIC Range” value with Pseudomonas aeruginosa is 16 to 32 µg/mL; in the data set on Serratia marcescens, 16 µg/mL (≈ 28.5 µM); in the data set on Klebsiella pneumoniae, 8 µg/mL (≈ 14.3 µM); against Escherichia coli it was 4 to 16 µg/mL. Also, the decomposition during lyophilization in data set [6] is on record as 10-15%. In addition, the median effective dose (ED50) worked out at 12.25 mg/kg in data set [5] (Test No. 1) and 14.85 mg/kg in data set [5] (Test No. 2).
